# Values joined by “and” are separate entries in the source; they are usually repeats but may differ in a detail not shown here. Equal values may be shown once. “Also recorded” adds a separate entry of the source.
# Assays:
# [1] = test system: visceral leishmaniasis; assay: Clinical, haematologic and parasite indices during treatment and follow-up (Example 2); assay type: in vivo, human; settings: mean
# Method: (§1) Patients newly diagnosed with visceral leighmaniasis, confirmed by the presence of leishmaniasis amastigotes in spleen aspirates, were allocated randomly to groups subjected to the following treatments:
# (§2) 1) IV/IM sodium stibogluconate (SbV) 20 mg/kg body weight once per day;
# (§3) 2) IM paromomycin sulphate (PM) 14-16 mg/kg body weight once per day;
# (§4) 3) IV/IM sodium stibogluconate 20 mg/kg body weight once per day and paromomycin sulphate 14-16 mg/kg body weight once per day.
# (§5) All treatments were administered until the first negative spleen aspirate was obtained, or for 20 consecutive days regardless of aspirate findings.
# (§6) The following procedures were conducted for patient assessment at intake and at suitable intervals during and after treatment: clinical history writeup: physical examination: body weight: chest X-ray: ECG tracing: liver and kidney function tests: blood picture and blood smears (to rule out malaria): complete urinalysis: stool examination: prothrombin time: and spleen aspirate smear examination by the method of Chulay & Bryceson, Quantitations of amastigotes of leishmania donovani in smears of splenic aspirates from patients with visceral leishmaniasis, American Journal of Tropical Medicine and Hygiene, 32, 1983, 475-479.
# [2] = Drug safety: adverse effects and complications (Example 2); assay type: in vivo, human
# Method: as §1, §2, §3, §4, §5, §6
# (§7) Drug safety was assessed for each treatment regime in terms of incidence of drug-related signs and symptoms and of laboratory test results return abnormalities. The assembled data were processed statistically by the Fisher's exact test (chi-square) and Pearson's correlation coefficient.
# [3] = test system: visceral leishmaniasis (leishmaniasis amastigotes in spleen aspirates); assay: Randomised clinical trial in newly diagnosed visceral leishmaniasis: clinical and parasitologic cure (Example 2); assay type: in vivo, human; settings: for Clinical cures, % / Clinical cures, No.: at termination, complete abatement of initial symptoms with marked reduction of spleen size; for Apparent cures, % / Apparent cures, No.: negative spleen aspirate smears at termination of treatment; for Failures, % / Failures, No.: partial cures and relapses; for Partial cures, % / Partial cures, No.: persistence of low parasite counts in terminal spleen aspirates; for Definite cures, % / Definite cures, No.: persisting clinical cure with negative spleen aspirates 6 months after termination; for Relapses, % / Relapses, No.: reappearance of leishmanial parasites after an apparent cure; for Mean treatment duration: treated until first negative spleen aspirate or for 20 consecutive days
# Method: as §1, §2, §3, §4, §5
# Exclusion criteria were: […]; known allergy to aminoglycoside compounds: pregnancy; haemoglobin assay below 40 g/l; abnormal prothrombin time; impaired liver or renal function; major concurrent infection; previous drug treatment for leishmaniasis; and spleen smear-parasite grading of less than 4+.
# as §6
# Treatment of effectiveness was graded under the following headings:
# Clinical cure: complete abatement of initial symptoms with marked reduction of spleen size;
# Partial cure: persistence of low parasite counts in terminal spleen aspirates;
# Apparent cure: negative spleen aspirate smears at termination of treatment;
# Relapse: reappearance of leishmanial parasites after an apparent cure;
# Definite cure: persisting clinical cure with negative spleen aspirates 6 months after termination of treatment;
# Failures: partial cures and relapses.
# as §7
# [4] = test system: Kala-azar; settings: 20 mg SbV/kg daily for 40 days; cited from earlier work
# [5] = Blood biochemistry during treatment and follow-up (Example 2); assay type: in vivo, human
# Method: as §2, §3, §4, §5, §6
# The assembled data were processed statistically by the Fisher's exact test (chi-square) and Pearson's correlation coefficient.
# [6] = test system: visceral leishmaniasis; settings: parenteral, 20 mg/kg body weight over 30 days; cited from earlier work
compound,measurement,setting,value
"NC[C@@H]1O[C@H](O[C@H]2[C@@H](O)[C@H](O[C@@H]3[C@@H](O)[C@H](N)C[C@H](N)[C@H]3O[C@H]3O[C@H](CO)[C@@H](O)[C@H](O)[C@H]3N)O[C@@H]2CO)[C@H](N)[C@@H](O)[C@@H]1O [PM, paromomycin sulphate]",Eosinophil count,[1]; Day 0 (intake),0 /cu mm
same,Heart rate,[1]; Day 0 (intake),105 min⁻¹
same,Hemoglobin assay,[1]; Day 0 (intake),7.1 g/dL
same,Parasite grading,[1]; Day 0 (intake),5
same,Spleen size,[1]; Day 0 (intake),15.5 cm
same,Temp,[1]; Day 0 (intake),38.3 °C
same,Weight,[1]; Day 0 (intake),34.0 kg
same,Eosinophil count,[1]; Day 20,2 /cu mm
same,Heart rate,[1]; Day 20,84 min⁻¹
same,Hemoglobin assay,[1]; Day 20,10.0 g/dL
same,Parasite grading,[1]; Day 20,1
same,Spleen size,[1]; Day 20,8.4 cm
same,Temp,[1]; Day 20,36.1 °C
same,Weight,[1]; Day 20,37.0 kg
same,Eosinophil count,[1]; Day 75,1 /cu mm
same,Heart rate,[1]; Day 75,82 min⁻¹
same,Hemoglobin assay,[1]; Day 75,12.3 g/dL
same,Parasite grading,[1]; Day 75,1
same,Spleen size,[1]; Day 75,4.3 cm
same,Temp,[1]; Day 75,36.1 °C
same,Weight,[1]; Day 75,39.1 kg
same,"Adverse effects, %",[2]; in vivo,0%
same,"Adverse effects, No.",[2]; in vivo,0 No.
same,antibiotic treatment needed for pneumonia,[2]; in vivo,did not need additional antibiotic medication
same,"bouts of pneumonia, cases",[2]; in vivo,4 cases
same,side effects (in words),[2]; in vivo,no side effects
same,"Clinical cures, %",[3],100%
same,"Clinical cures, No.",[3],19 No.
same,incidence of relapses (in words),[3]; comparison of treatment groups,least incidence of relapses; also recorded: smallest share of relapses; also recorded: low rate of relapses
same,parasitologic effectiveness (in words),[3]; comparison of treatment groups,best results
same,share of partial cures (in words),[3]; comparison of treatment groups,highest share of partial cures
same,"Apparent cures, %",[3],84.2%
same,"Apparent cures, No.",[3],16 No.
same,"Failures, %",[3],21%
same,"Failures, No.",[3],4 No.
same,"Partial cures, %",[3],15.8%
same,"Partial cures, No.",[3],3 No.
same,"Definite cures, %",[3],79%
same,"Definite cures, No.",[3],15 No.
same,"Relapses, %",[3],5.2%
same,"Relapses, No.",[3],1 No.
same,Mean treatment duration,[3],19 days
sodium stibogluconate [SbV],failures,[4],8%
same,Eosinophil count,[1]; Day 0 (intake),0 /cu mm
same,Heart rate,[1]; Day 0 (intake),112 min⁻¹
same,Hemoglobin assay,[1]; Day 0 (intake),7.6 g/dL
same,Parasite grading,[1]; Day 0 (intake),5
same,Spleen size,[1]; Day 0 (intake),14.5 cm
same,Temp,[1]; Day 0 (intake),38.5 °C
same,Weight,[1]; Day 0 (intake),33.2 kg
same,Eosinophil count,[1]; Day 20,1 /cu mm
same,Heart rate,[1]; Day 20,92 min⁻¹
same,Hemoglobin assay,[1]; Day 20,8.9 g/dL
same,Parasite grading,[1]; Day 20,1
same,Spleen size,[1]; Day 20,7 cm
same,Temp,[1]; Day 20,36.2 °C
same,Weight,[1]; Day 20,27.3 kg
same,Eosinophil count,[1]; Day 75,1 /cu mm
same,Heart rate,[1]; Day 75,80 min⁻¹
same,Hemoglobin assay,[1]; Day 75,11.6 g/dL
same,Parasite grading,[1]; Day 75,1
same,Spleen size,[1]; Day 75,5 cm
same,Temp,[1]; Day 75,36.9 °C
same,Weight,[1]; Day 75,36.7 kg
same,"Adverse effects, %",[2]; in vivo,27%
same,"Adverse effects, No.",[2]; in vivo,3 No.
same,"bouts of pneumonia, cases",[2]; in vivo,5 cases
same,side effects (in words),[2]; in vivo,distinctly more side effects
same,antibiotic treatment needed for pneumonia,[2]; patients with pneumonia,required antibiotic treatment
same,ALAT (Alanine aminotransferase),[5]; Day 0,25.4 I.U./l
same,ALP (Alkaline phosphatase),[5]; Day 0,87.6 I.U./l
same,ASAT (Aspartate aminotransferase),[5]; Day 0,20.2 I.U./l
same,Albumin,[5]; Day 0,31.3 g/L
same,BUN assay,[5]; Day 0,8.2 mmol/L
same,Bilirubin,[5]; Day 0,6.4 µmol/L
same,Creatinine,[5]; Day 0,73.6 µmol/L
same,ALAT (Alanine aminotransferase),[5]; Day 10,24.0 I.U./l
same,ALP (Alkaline phosphatase),[5]; Day 10,79.1 I.U./l
same,ASAT (Aspartate aminotransferase),[5]; Day 10,19.2 I.U./l
same,Albumin,[5]; Day 10,30.3 g/L
same,BUN assay,[5]; Day 10,8.1 mmol/L
same,Bilirubin,[5]; Day 10,4.1 µmol/L
same,Creatinine,[5]; Day 10,68.0 µmol/L
same,ALAT (Alanine aminotransferase),[5]; Day 20,22.0 I.U./l
same,ALP (Alkaline phosphatase),[5]; Day 20,71.0 I.U./l
same,ASAT (Aspartate aminotransferase),[5]; Day 20,21.0 I.U./l
same,Albumin,[5]; Day 20,29.5 g/L
same,BUN assay,[5]; Day 20,4.0 mmol/L
same,Bilirubin,[5]; Day 20,3.8 µmol/L
same,Creatinine,[5]; Day 20,53.0 µmol/L
same,ALAT (Alanine aminotransferase),[5]; Day 75,25.3 I.U./l
same,ALP (Alkaline phosphatase),[5]; Day 75,83.7 I.U./l
same,ASAT (Aspartate aminotransferase),[5]; Day 75,25.5 I.U./l
same,Albumin,[5]; Day 75,36.6 g/L
same,BUN assay,[5]; Day 75,3.8 mmol/L
same,Bilirubin,[5]; Day 75,4.5 µmol/L
same,Creatinine,[5]; Day 75,73.5 µmol/L
same,ALAT (Alanine aminotransferase),[5]; Day 195,23.0 I.U./l
same,ALP (Alkaline phosphatase),[5]; Day 195,84.0 I.U./l
same,ASAT (Aspartate aminotransferase),[5]; Day 195,22.0 I.U./l
same,Albumin,[5]; Day 195,40.0 g/L
same,BUN assay,[5]; Day 195,4.0 mmol/L
same,Bilirubin,[5]; Day 195,4.0 µmol/L
same,Creatinine,[5]; Day 195,78.9 µmol/L
same,cure rate,[6],about 80%
same,"Clinical cures, %",[3],100%
same,"Clinical cures, No.",[3],11 No.
same,parasitologic effectiveness (in words),[3]; comparison of treatment groups,by far the least effective of all
same,"Apparent cures, %",[3],90.9%
same,"Apparent cures, No.",[3],10 No.
same,"Failures, %",[3],45.5% and 45. %
same,"Failures, No.",[3],5 No.
same,"Partial cures, %",[3],9.1%
same,"Partial cures, No.",[3],1 No.
same,"Definite cures, %",[3],54.5%
same,"Definite cures, No.",[3],6 No.
same,"Relapses, %",[3],36.4%
same,"Relapses, No.",[3],4 No.
same,Mean treatment duration,[3],17 days
vitamin K,incidence of epistaxis,"[2]; vitamin K 10 mg daily for 5 days, low initial haemoglobin and prolonged prothrombin time",significantly reduced

# Reference: patent publication US5470836A, “Paromomycin or its derivatives or salts thereof in combination with sodium stirogluconate for parenteral treatment of human parasitic diseases” (priority 1988, dated 1995)
